Key:
[1] = test system: Bovine viral diarrhea (BVD) virus; experiment: Anti-BVDV CPE inhibition assay in MDBK cells; settings: for EC50: Bovine viral diarrhea virus isolates and strains, MDBK, in Bos taurus, 96 h; for SI (selectivity index, ratio of CC50 and EC50): CC50/EC50, MDBK cells, BVD virus
[2] = Cytotoxicity in MDBK cells (no BVD virus added); settings: bovine, MDBK cells (Madin-Darby bovine kidney), no virus added

Row | Compound | EC50 [1] [nM] | SI (selectivity index, ratio of CC50 and EC50) [1] | CC50 at 4 days [2] [nM]
1 | N#Cc1ccc(-c2cc3ccn(Cn4nnc5ccccc54)cc-3n2)cc1 [Compound VI, 4-{6-[(1H-benzotriazol-1-yl)methyl]-6H-pyrrolo[2,3-c]pyridin-2-yl}benzonitrile] | 16 | >3125 | > 50000
2 | COc1ncccc1-c1cc2ccn(Cc3nc4ccc(C)cc4s3)cc-2n1 [Compound XIV, 2-{[2-(2-methoxypyridin-3-yl)-6H-pyrrolo[2,3-c]pyridin-6-yl]methyl}-6-methyl-1,3-benzothiazole] | 17 | 235 | 4000
3 | Cc1ccc2oc(Cn3ccc4nc(-c5ccccc5CO)cc-4c3)nc2c1 [Compound XXVI, (2-(5-((5-methyl-1,3-benzoxazol-2-yl)methyl)-5H-pyrrolo[3,2-c]pyridin-2-yl)phenyl)methanol] | 311 ± 78 | 71 | 22000
4 | Cc1ccc2nc(Cn3ccc4cc(-c5cc(OCCO)ccc5F)nc-4c3)sc2c1 [Compound XII, 2-(4-fluoro-3-(6-((6-methyl-1,3-benzothiazol-2-yl)methyl)-6H-pyrrolo[2,3-c]pyridin-2-yl)phenoxy)ethan-1-ol] | 20 ± 7 | 250 | 5000
5 | OCCOc1ccc(F)c(-c2nc3ccn(Cc4cc(-c5cc(F)ccc5F)no4)cc-3n2)c1 [CPD-42, 2-(3-(5-((3-(2,5-difluorophenyl)isoxazol-5-yl)methyl)-5H-imidazo[4,5-c]pyridin-2-yl)-4-fluorophenoxy)ethan-1-ol] | 460 ± 48 | >109 | > 50000
6 | Cc1c(-c2nc3ccn(Cc4nc5cc(Cl)ccc5s4)cc-3n2)cnn1C [CPD-4, 5-chloro-2-((2-(1,5-dimethyl-1H-pyrazol-4-yl)-5H-imidazo[4,5-c]pyridin-5-yl)methyl)benzo[d]thiazole] | 84 ± 3 | >595 | > 50000
7 | OCc1ccccc1-c1cc2cn(Cn3nnc4ccccc43)ccc-2n1 [Compound XXI, (2-(5-((1H-Benzotriazol-1-yl)methyl)-5H-pyrrolo[3,2-c]pyridin-2-yl)phenyl)methanol] | 387 ± 22 | >129 | > 50000
8 | OCc1ccccc1-c1nc2ccn(Cc3cc(-c4cc(F)ccc4F)no3)cc-2n1 [CPD-46, (2-(5-((3-(2,5-difluorophenyl)isoxazol-5-yl)methyl)-5H-imidazo[4,5-c]pyridin-2-yl)phenyl)methanol] | 465 ± 26 | >108 | > 50000
9 | COc1ncccc1-c1cc2cn(Cn3nnc4ccccc43)ccc-2n1 [Compound XXIII, 1-((2-(2-methoxypyridin-3-yl)-5H-pyrrolo[3,2-c]pyridin-5-yl)methyl)-1H-benzotriazole] | 82 | 390 | 32000
10 | Fc1ccccc1-c1nc2ccn(Cc3nc4ccc(Cl)cc4s3)cc-2n1 [CPD-25, 6-chloro-2-((2-(2-fluorophenyl)-5H-imidazo[4,5-c]pyridin-5-yl)methyl)benzo[d]thiazole] | 78 ± 4 | >641 | > 50000
11 | Fc1ccc(F)c(-c2cc(Cn3ccc4nc(-c5ccccc5F)nc-4c3)on2)c1 [CPD-35, 3-(2,5-difluorophenyl)-5-((2-(2-fluorophenyl)-5H-imidazo[4,5-c]pyridin-5-yl)methyl)isoxazole] | 75 ± 24 | >667 | > 50000
12 | Fc1ccc(OC(F)(F)F)cc1-c1cc2cn(Cn3nnc4ccccc43)ccc-2n1 [Compound XVIII, 1-({2-[2-fluoro-5-(trifluoromethoxy)phenyl]-5H-pyrrolo[3,2-c]pyridin-5-yl}methyl)-1H-benzotriazole] | 76 ± 19 | 158 | 12000
13 | Cc1ccc2nc(Cn3ccc4cc(-c5ccccc5CO)nc-4c3)[nH]c2c1 [Compound XVI, (2-(6-((6-methyl-1H-benzoimidazol-2-yl)methyl)-6H-pyrrolo[2,3-c]pyridin-2-yl)phenyl)methanol] | 294 ± 70 | 75 | 22000
14 | Cc1ccc2sc(Cn3ccc4nc(-c5ccccc5F)nc-4c3)nc2c1 [CPD-23, 2-((2-(2-fluorophenyl)-5H-imidazo[4,5-c]pyridin-5-yl)methyl)-5-methylbenzo[d]thiazole] | 84 ± 29 | >595 | > 50000
15 | COc1ccccc1-c1cc2ccn(Cn3nnc4ccccc43)cc-2n1 [Compound IV, 1-{[2-(2-methoxyphenyl)-6H-pyrrolo[2,3-c]pyridin-6-yl]methyl}-1H-benzotriazole] | 8 ± 5 | 2750 | 22000
16 | COc1ncccc1-c1nc2ccn(Cc3cc(-c4cc(F)ccc4F)no3)cc-2n1 [CPD-17, 3-(2,5-difluorophenyl)-5-((2-(2-methoxypyridin-3-yl)-5H-imidazo[4,5-c]pyridin-5-yl)methyl)isoxazole] | 72 ± 2 | 1389 | 100000
17 | Fc1ccccc1-c1nc2ccn(Cc3ncc(-c4ccccc4)s3)cc-2n1 [CPD-28, 2-((2-(2-fluorophenyl)-5H-imidazo[4,5-c]pyridin-5-yl)methyl)-5-phenylthiazole] | 82 | >610 | > 50000
18 | Cc1nn(C)c(C)c1-c1nc2ccn(Cc3cc(-c4cc(F)ccc4F)no3)cc-2n1 [CPD-13, 3-(2,5-difluorophenyl)-5-((2-(1,3,5-trimethyl-1H-pyrazol-4-yl)-5H-imidazo[4,5-c]pyridin-5-yl)methyl)isoxazole] | 95 ± 22 | >526 | > 50000
19 | Cc1ccc2nc(Cn3ccc4nc(-c5cc(OCCO)ccc5F)nc-4c3)sc2c1 [CPD-41, 2-(4-fluoro-3-(5-((6-methylbenzo[d]thiazol-2-yl)methyl)-5H-imidazo[4,5-c]pyridin-2-yl)phenoxy)ethan-1-ol] | 223 ± 143 | >224 | > 50000
20 | Fc1ccccc1-c1nc2ccn(Cc3nc4ccccc4s3)cc-2n1 [CPD-24, 2-((2-(2-fluorophenyl)-5H-imidazo[4,5-c]pyridin-5-yl)methyl)benzo[d]thiazole] | 299 ± 91 | >167 | > 50000
21 | Fc1ccc(OC(F)(F)F)cc1-c1cc2ccn(Cn3nnc4ccccc43)cc-2n1 [Compound II, 1-({2-[2-fluoro-5-(trifluoromethoxy)phenyl]-6H-pyrrolo[2,3-c]pyridin-6-yl}methyl)-1H-benzotriazole] | 23 | 870 | 20000
22 | Cc1ccc2nc(Cn3ccc4nc(-c5ccccc5CO)cc-4c3)[nH]c2c1 [XXXIII, [2-[5-[(6-methyl-1H-benzimidazol-2-yl)methyl]pyrrolo[3,2-c]pyridin-2-yl]phenyl]methanol] | 1900 ± 102 | >26 | > 50000
23 | CN(C)c1cccc(-c2nc3ccn(Cc4cc(-c5cc(F)ccc5F)no4)cc-3n2)c1 [CPD-44, 3-(5-((3-(2,5-difluorophenyl)isoxazol-5-yl)methyl)-5H-imidazo[4,5-c]pyridin-2-yl)-N,N-dimethylaniline] | 88 ± 17 | >568 | > 50000
24 | Cc1ccc2nc(Cn3ccc4cc(-c5cnn(C)c5C)nc-4c3)sc2c1 [Compound XV, 2-{[2-(1,5-dimethyl-1H-pyrazol-4-yl)-6H-pyrrolo[2,3-c]pyridin-6-yl]methyl}-6-methyl-1,3-benzothiazole] | 16 ± 1 | 1063 | 17000
25 | Cc1ccc2nc(Cn3ccc4nc(-c5ccccc5F)nc-4c3)[nH]c2c1 [CPD-36, 2-(2-fluorophenyl)-5-((6-methyl-1H-benzo[d]imidazol-2-yl)methyl)-5H-imidazo[4,5-c]pyridine] | 403 ± 129 | >124 | > 50000
26 | Cc1ccc2nc(Cn3ccc4nc(-c5ccccc5CO)cc-4c3)sc2c1 [Compound XXX, (2-{5-[(6-methyl-1,3-benzothiazol-2-yl)methyl]-5H-pyrrolo[3,2-c]pyridin-2-yl}phenyl)methanol] | 19 ± 7 | 1053 | 20000
27 | Cc1ccc2oc(Cn3ccc4nc(-c5ccccc5F)cc-4c3)nc2c1 [Compound XXV, 2-{[2-(2-fluorophenyl)-5H-pyrrolo[3,2-c]pyridin-5-yl]methyl}-5-methyl-1,3-benzoxazole] | 4 ± 2 | 1750 | 7000
28 | COc1ccc2oc(Cn3ccc4nc(-c5ccccc5F)nc-4c3)nc2c1 [CPD-33, 2-((2-(2-fluorophenyl)-5H-imidazo[4,5-c]pyridin-5-yl)methyl)-5-methoxybenzo[d]oxazole] | 447 | >112 | > 50000
29 | Fc1ccccc1-c1nc2ccn(Cc3nc4cc(Cl)ccc4s3)cc-2n1 [CPD-26, 5-chloro-2-((2-(2-fluorophenyl)-5H-imidazo[4,5-c]pyridin-5-yl)methyl)benzo[d]thiazole] | 96 ± 6 | >521 | > 50000
30 | Fc1ccc2nc(Cn3ccc4nc(-c5ccccc5F)nc-4c3)[nH]c2c1 [CPD-37, 5-((6-fluoro-1H-benzo[d]imidazol-2-yl)methyl)-2-(2-fluorophenyl)-5H-imidazo[4,5-c]pyridine] | 370 ± 74 | >135 | > 50000

Source: patent US12577242B2, “Pyrrolopyridine and imidazopyridine antiviral compounds” (KATHOLIEKE UNIVERSITEIT LEUVEN, priority 2020, dated 2026)
